Results from US11590139B2, “Substituted aminopurine compounds, compositions thereof, and methods of treatment therewith” (Signal Pharmaceuticals, LLC, priority 2014, dated 2023).

system: Lox-IMVI melanoma cell line; experiment: Lox-IMVI anti-proliferative assay (growth inhibition, Cell Titer-Glo); type: cell-based, human; conditions: Homo sapiens; IC50 activity level in the cell-based Lox-IMVI anti-proliferative assay; read-out: Activity
How it was run: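 Lox-IMVI cells in RPMI+10% FBS exposed 72 h at 37 °C to 10-point, 3-fold dilutions (0.5 nM–10 μM; 0.2% DMSO final), in duplicate. Viability by Cell Titer-Glo luminescence, with a t0 cell-number reading; data as % of DMSO control; IC50 from a four-parameter logistic fit.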

| SMILES | IC50 [nM] |
| --- | --- |
| NC(=O)[C@H]1CC[C@@H](n2c(Nc3c(Cl)cc(Cl)cc3Cl)nc3cnc(N[C@H]4CCNC[C@H]4F)nc32)CC1 [Example 138, (1R,4s)-4-(2-((3R,4S)-3-fluoropiperidin-4-ylamino)-8-(2,4,6-trichlorophenylamino)-9H-purin-9-yl)cyclohexanecarboxamide] | > 1000 |
| NC(=O)[C@H]1CC[C@@H](n2c(Nc3c(F)cc(F)cc3Cl)nc3cnc(N[C@H]4CCC[C@@H](O)C4)nc32)CC1 [Example 371, (1R,4s)-4-(8-(2-chloro-4,6-difluorophenylamino)-2-((1S,3R)-3-hydroxycyclohexylamino)-9H-purin-9-yl)cyclohexanecarboxamide] | > 1000 |
| NC(=O)[C@H]1CC[C@@H](n2c(Nc3c(F)cc(Cl)cc3Cl)nc3cnc(N[C@@H]4CCC[C@H](O)C4)nc32)CC1 [Example 361, (1S,4s)-4-(8-(2,4-dichloro-6-fluorophenylamino)-2-((1R,3S)-3-hydroxycyclohexylamino)-9H-purin-9-yl)cyclohexanecarboxamide] | < 250 |
| NC(=O)[C@H]1CC[C@@H](n2c(Nc3c(F)cc(F)cc3F)nc3cnc(N[C@H]4CCOC[C@@H]4F)nc32)CC1 [Example 277, (1R,4s)-4-(2-((3R,4S)-3-fluorotetrahydro-2H-pyran-4-ylamino)-8-(2,4,6-trifluorophenylamino)-9H-purin-9-yl)cyclohexanecarboxamide] | > 1000 |

same assay, conditions: Homo sapiens; Lox-IMVI anti-proliferative assay, IC50 activity level; read-out: Activity

| SMILES | IC50 [nM] |
| --- | --- |
| C[C@]1(C(N)=O)CC[C@H](n2c(Nc3c(Cl)cc(F)cc3Cl)nc3cnc(NC4CCC(F)(F)CC4)nc32)CC1 [Example 476, (1r,4r)-4-(8-(2,6-dichloro-4-fluorophenylamino)-2-(4,4-difluorocyclohexylamino)-9H-purin-9-yl)-1-methylcyclohexanecarboxamide] | > 1000 |
| NC(=O)[C@H]1CC[C@@H](n2c(Nc3c(F)cc(F)cc3Cl)nc3cnc(N[C@@H]4CCC(F)(F)C4)nc32)CC1 [Example 590, (1S,4s)-4-(8-(2-chloro-4,6-difluorophenylamino)-2-((R)-3,3-difluorocyclopentylamino)-9H-purin-9-yl)cyclohexanecarboxamide] | < 250 |
| C[C@]1(C(N)=O)CC[C@@H](n2c(Nc3c(F)cc(C#N)cc3Cl)nc3cnc(NC4CCOCC4)nc32)CC1 [Example 525, (1s,4s)-4-(8-(2-chloro-4-cyano-6-fluorophenylamino)-2-(tetrahydro-2H-pyran-4-ylamino)-9H-purin-9-yl)-1-methylcyclohexanecarboxamide] | < 250 |
| C[C@H]1COCC[C@@H]1Nc1ncc2nc(Nc3c(Cl)cc(C#N)cc3Cl)n([C@H]3CC[C@@H](C(N)=O)CC3)c2n1 [Example 496, (1R,4s)-4-(8-(2,6-dichloro-4-cyanophenylamino)-2-((3R,4S)-3-methyltetrahydro-2H-pyran-4-ylamino)-9H-purin-9-yl)cyclohexanecarboxamide] | 250 to 500 |
| C[C@]1(C(N)=O)CC[C@@H](n2c(Nc3c(Cl)cc(F)cc3Cl)nc3cnc(N[C@@H]4CCC[C@H](O)C4)nc32)CC1 [Example 567, (1S,4s)-4-(8-(2,6-dichloro-4-fluorophenylamino)-2-((1R,3S)-3-hydroxycyclohexylamino)-9H-purin-9-yl)-1-methylcyclohexanecarboxamide] | 500 to 1000 |

same assay, conditions: Homo sapiens; Lox-IMVI melanoma cell line, anti-proliferative assay; read-out: Activity (IC50 activity level)

| SMILES | IC50 [nM] |
| --- | --- |
| C[C@]1(C(N)=O)CC[C@@H](n2c(Nc3c(Cl)cc(F)cc3Cl)nc3cnc(N[C@H]4CCC[C@@H](O)C4)nc32)CC1 [Example 631, (1R,4s)-4-(8-(2,6-dichloro-4-fluorophenylamino)-2-((1S,3R)-3-hydroxycyclohexylamino)-9H-purin-9-yl)-1-methylcyclohexanecarboxamide] | 500 to 1000 |
| Cc1ccc(S(=O)(=O)N2CCC[C@@H](Nc3ncc4nc(Nc5c(F)cc(Cl)cc5F)n([C@H]5CC[C@@H](C(N)=O)CC5)c4n3)C2)cc1 [Example 792, (1S,4s)-4-(8-(4-chloro-2,6-difluorophenylamino)-2-((R)-1-tosylpiperidin-3-ylamino)-9H-purin-9-yl)cyclohexanecarboxamide] | > 1000 |
